Experimental data reported in PMC9048407 (Molecular microbiology, 2021).

How the values were obtained:
BplA (Ca 0589) = target: T1, BplA (Ca 0589) (Clostridium acetobutylicum, UniProt Q97LH2); test: TLC of […]Bio-5′-AMP; assay type: biochemical; settings: 25 uM biotin, 5 uM ATP, 5.5 mM MgCl2, pH 8.0, room temperature; acceptor B. subtilis AccB-86
T1 sequence (Q97LH2 1-270): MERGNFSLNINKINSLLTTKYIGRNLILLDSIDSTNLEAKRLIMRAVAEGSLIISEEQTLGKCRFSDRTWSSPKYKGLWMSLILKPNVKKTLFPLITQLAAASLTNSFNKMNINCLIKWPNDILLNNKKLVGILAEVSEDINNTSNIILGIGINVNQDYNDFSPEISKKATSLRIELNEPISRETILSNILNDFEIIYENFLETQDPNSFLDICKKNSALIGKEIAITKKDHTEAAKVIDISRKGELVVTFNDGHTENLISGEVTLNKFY

[1] = target: BirA′ (protein encoded by Clostridium acetobutylicum gene Ca 0212), purified (Clostridium acetobutylicum (strain ATCC 824)); test: SEC

`O=C(O)CCCC[C@@H]1SC[C@@H]2NC(=O)N[C@@H]21` [biotin] was tested, and the “TLC of [32P]Bio-5′-AMP; AccB-86 native gel shift; MS/MS of product” value (BplA (Ca 0589)) was “In reactions with BplA, formation of the Bio-5′-AMP intermediate was detected upon biotin addition”.

For “BirA′ (protein encoded by Clostridium acetobutylicum gene Ca 0212), purified (natural protein)”, the stoichiometry N [1] was 2.
